Results: US20090170872A1, “Compounds and Their Pharmaceutical Use” (Orchid Research Laboratories Limited, priority 2005, published 2009)

Columns and labels:
[1] = tested on: serum TNF-α production; test: In-vivo TNF-α inhibition assay (LPS-induced serum TNF-α in mice); conditions: male Swiss albino mice, oral, serum 90 minutes after LPS challenge
Description: TNF-α inhibitory activity is assessed by in-vivo inhibition of serum TNF-α production in mice. This method is used to assess the inhibitory actions of compounds, on TNF-[…] production in mouse (Griswold et al J Pharmacol Exp Ther 287,705, 1998, Garcia et al, Histol Histopathol 5(1), 43, 1990, and Victor et al, Physiol Res 52,789, 2003). Male Swiss albino mice with body weights equivalent within each group are selected. The animals are fasted for eighteen hours with free access to water. The control group receives only LPS and the drug treatment group receives LPS and the test compound. At the start of the experiment, the drug is administered orally. Thirty minutes later, the animals are given intraperitoneal injection with lipo-polysaccharide (LPS). Blood samples are withdrawn 90 minutes after the LPS challenge, which is the time point of maximal elevation of serum TNF-α activity. Blood was centrifuged for 10 minutes at 4° C. Serum samples were assayed for TNF-[…] levels using Mouse ELISA kit. The Percent Inhibition of TNF-α production is determined by comparison with LPS-treated and LPS/drug treated groups.

[2] = biological target: T1, COX-2 (Homo sapiens, UniProt P35354); test: COX-2 enzyme based assay (purified recombinant enzyme, prostaglandin EIA); assay type: biochemical
T1 sequence (P35354 18-604): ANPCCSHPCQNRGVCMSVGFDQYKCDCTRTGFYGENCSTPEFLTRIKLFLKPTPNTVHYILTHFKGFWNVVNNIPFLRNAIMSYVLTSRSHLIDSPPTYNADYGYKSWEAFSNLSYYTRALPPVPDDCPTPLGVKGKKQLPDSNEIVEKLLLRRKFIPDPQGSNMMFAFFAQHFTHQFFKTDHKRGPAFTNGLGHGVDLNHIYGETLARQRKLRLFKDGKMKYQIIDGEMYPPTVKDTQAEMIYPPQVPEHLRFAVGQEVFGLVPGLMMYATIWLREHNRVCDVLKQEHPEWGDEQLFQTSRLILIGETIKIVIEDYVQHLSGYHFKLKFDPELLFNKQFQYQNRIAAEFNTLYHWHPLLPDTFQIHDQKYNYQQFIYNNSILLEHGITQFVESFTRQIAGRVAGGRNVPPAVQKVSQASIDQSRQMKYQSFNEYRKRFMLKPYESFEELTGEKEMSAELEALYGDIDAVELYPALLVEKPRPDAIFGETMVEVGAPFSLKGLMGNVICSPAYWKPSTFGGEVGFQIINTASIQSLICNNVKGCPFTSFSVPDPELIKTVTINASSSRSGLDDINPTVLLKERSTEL
Description: (§1) COX-1 and COX-2 enzyme based assays were carried out to check the inhibitory potential of test compounds on the production of prostaglandin by purified recombinant COX-1/COX-2 enzyme (Proc. Nat. Acad. Sci. USA, 88, 2692-2696, 1991; J. Clin. Immunoassay 15, 116-120, 1992) In this assay, the potential of the test compound to inhibit the production of prostaglandin's either by COX-1 or COX-2 from arachidonic acid (substrate) was measured. This was an enzyme based in-vitro assay to evaluate selective COX inhibition with good reproducibility.
(§2) Arachidonic acid was converted to PGH2 (Intermediate product) by COX1/COX-2 in the presence or absence of the test compound. The reaction was carried out at 37° C. and after 2 minutes it was stopped by adding 1M HCl. The intermediate product PGH2 was converted to a stable prostanoid product PGF2α by SnCl2 reduction. The amount of PGF2α produced in the reaction was inversely proportional to the COX inhibitory potential of the test compound. The prostanoid product was quantified via enzyme immunoassay (EIA) using a broadly specific antibody that binds to all the major forms of prostaglandin, using Cayman ELISA kit as per the procedure outlined by the manufacturer (Cayman Chemicals, Ann Arbor, USA).

[3] = biological target: COX-1 (Homo sapiens, UniProt P23219); test: COX-1 enzyme based assay (purified recombinant enzyme, prostaglandin EIA); assay type: biochemical
COX-1, sequence (P23219 24-599): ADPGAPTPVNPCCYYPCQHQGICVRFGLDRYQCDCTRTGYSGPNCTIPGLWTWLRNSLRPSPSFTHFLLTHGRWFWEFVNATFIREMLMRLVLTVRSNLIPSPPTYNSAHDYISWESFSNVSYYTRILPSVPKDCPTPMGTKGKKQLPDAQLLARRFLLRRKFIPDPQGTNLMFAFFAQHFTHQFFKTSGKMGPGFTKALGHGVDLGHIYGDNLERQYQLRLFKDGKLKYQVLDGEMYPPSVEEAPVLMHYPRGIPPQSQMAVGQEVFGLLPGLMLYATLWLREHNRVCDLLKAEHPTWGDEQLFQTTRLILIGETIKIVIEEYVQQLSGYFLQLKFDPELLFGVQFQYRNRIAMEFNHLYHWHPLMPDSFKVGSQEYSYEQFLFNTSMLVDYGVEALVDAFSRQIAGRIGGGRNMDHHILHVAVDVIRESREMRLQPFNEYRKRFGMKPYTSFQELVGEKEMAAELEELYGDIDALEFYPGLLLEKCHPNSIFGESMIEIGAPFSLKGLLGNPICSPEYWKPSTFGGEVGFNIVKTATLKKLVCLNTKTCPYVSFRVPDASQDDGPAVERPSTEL
Description: as §1, §2

[4] = tested on: TNF-α; test: TNF-α production in LPS-stimulated human whole blood (ELISA); assay type: cell-based; conditions: LPS 4 hours, read-out: % TNF-α Inhibitory Activity in (hPBMC)
Description: This assay determines the effect of the test compounds on the production of TNF-α in human whole blood. TNF-α assay is carried out as described by Armin Hatzelmann and Christian Schudt (J Pharm Exp Ther 297, 261, 2001). Compounds are tested for their ability to inhibit the activity of TNF-α in human whole blood. The test compounds are pre-incubated for 15 minutes at 37° C. and then stimulated with Lipopolysaccharide (Salmonella abortus equi, 1 µg/ml) for 4 hours at 37° C. in 5% CO2. The levels of TNF-α are estimated using Enzyme linked Immunosorbent assay performed in a 96 well format as per the procedure of the manufacturer (Cayman Chemical, Ann Arbor, USA).

[5] = tested on: IL-6; test: IL-6 production in LPS-stimulated human whole blood (ELISA); assay type: cell-based; conditions: LPS 4 hours, read-out: % IL-6 Inhibitory Activity (hPBMC)
Description: This assay determines the effect of test compounds on the production of IL-6 from human whole blood. Compounds are tested for their ability to downregulate the production of IL-6 in activated whole blood. The test compounds are pre-incubated for 15 minutes at 37° C. and then stimulated with Lipopolysaccharide (Salmonella abortus equi, 1 µg/ml) for 4 hours at 37° C. in 5% CO2. The levels of IL-6 are estimated using Enzyme linked Immunosorbent assay performed in a 96 well format as per the procedure of the manufacturer. (Cayman Chemical, Ann Arbor, USA).

| inhibition at 1 µM [2] [%] | inhibition at 10 µM [2] [%] | inhibition at 10 µM [3] [%] | melting point [°C] | SMILES | % TNF-α inhibition in in vivo sepsis in mice [1] [%] | inhibition at 1 µM [4] [%] | inhibition at 10 µM [4] [%] | inhibition at 1 µM [5] [%] | inhibition at 10 µM [5] [%] |
| --- | --- | --- | --- | --- | --- | --- | --- | --- | --- |
| – | – | – | 108 to 112 | Cc1nccn1CC1CCc2c(c3ccccc3n2C)/C1=N/OC(=O)c1ccccc1Br (stereo not drawn) [Example 39, (4E)-9-methyl-3-[(2-methyl-1H-imidazol-1-yl)methyl]-1,2,3,9-tetrahydro-4H-carbazol-4-one O-2-bromobenzoyloxime] | – | 26.1 | 45.8 | 28.5 | 19.1 |
| – | – | – | 170 to 175 | Cc1nccn1CC1CCc2c(c3ccccc3n2C)/C1=N/OC(=O)c1cccc(Cl)n1 (stereo not drawn) [Example 40, (4E)-9-methyl-3-[(2-methyl-1H-imidazol-1-yl)methyl]-1,2,3,9-tetrahydro-4H-carbazol-4-one O-6-chloropyridinoyloxime] | – | – | – | 20.5 | 21.3 |
| – | – | – | 178 to 180 | Cc1nccn1CC1CCc2c(c3ccccc3n2C)/C1=N/OC(=O)c1ccc(C#N)cc1 (stereo not drawn) [Example 44, (4E)-9-methyl-3-[(2-methyl-1H-imidazol-1-yl)methyl]-1,2,3,9-tetrahydro-4H-carbazol-4-one O-4-cyanobenzoyloxime] | – | 23.5 | 45.6 | 13.2 | 22.7 |
| – | – | – | 160 to 166 | Cc1nccn1CC1CCc2c(c3ccccc3n2C)/C1=N/OC(=O)c1cccc(C#N)c1 (stereo not drawn) [Example 65, (4E)-9-methyl-3-[(2-methyl-1H-imidazol-1-yl)methyl]-1,2,3,9-tetrahydro-4H-carbazol-4-one O-3-cyanobenzoyloxime] | – | – | – | 13.7 | 30.6 |

The next lines start with the compound.

| SMILES | inhibition at 1 µM [2] [%] | inhibition at 10 µM [2] [%] | inhibition at 10 µM [3] [%] | melting point [°C] | % TNF-α inhibition in in vivo sepsis in mice [1] [%] | inhibition at 1 µM [4] [%] | inhibition at 10 µM [4] [%] | inhibition at 1 µM [5] [%] | inhibition at 10 µM [5] [%] |
| --- | --- | --- | --- | --- | --- | --- | --- | --- | --- |
| Cc1nccn1CC1CCc2c(c3ccccc3n2C)/C1=N/Oc1ccc(Br)cn1 (stereo not drawn) [Example 17, (4E)-9-methyl-3-[(2-methyl-1H-imidazol-1-yl)methyl]-1,2,3,9-tetrahydro-4H-carbazol-4-one O-[5-bromo-pyridin-2-yl]oxime] | 41.5 | 42.7 | – | – | 82.69 | – | – | – | – |
| COc1cc(O/N=C2/c3c(n(C)c4ccccc34)CCC2Cn2ccnc2C)nc(OC)n1 (stereo not drawn) [Example 20, (4E)-9-methyl-3-[(2-methyl-1H-imidazol-1-yl)methyl]-1,2,3,9-tetrahydro-4H-carbazol-4-one O-(2,6-dimethoxypyrimidin-4-yl)oxime] | 32.7 | 34.9 | 39.1 | – | – | – | – | – | – |
| Cc1nccn1CC1CCc2c(c3ccccc3n2C)/C1=N/Oc1ccc(C(F)(F)F)cn1 (stereo not drawn) [Example 21, (4E)-9-methyl-3-[(2-methyl-1H-imidazol-1-yl)methyl]-1,2,3,9-tetrahydro-4H-carbazol-4-one O-[5-trifluoromethyl-pyridin-2-yl]oxime] | 23 | 23.6 | – | – | – | – | – | – | – |
| Cc1nccn1CC1CCc2c(c3ccccc3n2C)/C1=N/OC(=O)c1ccccc1Cl (stereo not drawn) [Example 37, (4E)-9-methyl-3-[(2-methyl-1H-imidazol-1-yl)methyl]-1,2,3,9-tetrahydro-4H-carbazol-4-one O-2-chlorobenzoyloxime] | – | – | – | 111 to 116 | – | 14.5 | 42.1 | 21.1 | 32.2 |
| CCc1ccc(C(=O)O/N=C2/c3c(n(C)c4ccccc34)CCC2Cn2ccnc2C)cc1 (stereo not drawn) [Example 41, (4E)-9-methyl-3-[(2-methyl-1H-imidazol-1-yl)methyl]-1,2,3,9-tetrahydro-4H-carbazol-4-one O-4-ethylbenzoyloxime] | – | – | – | 175 to 178 | – | – | – | 7.63 | 3.09 |
| Cc1nccn1CC1CCc2c(c3ccccc3n2C)/C1=N/OC(=O)C1CCCCC1 (stereo not drawn) [Example 42, (4E)-9-methyl-3-[(2-methyl-1H-imidazol-1-yl)methyl]-1,2,3,9-tetrahydro-4H-carbazol-4-one O-cyclohexanoyloxime] | – | – | – | 98 to 106 | – | – | – | 7.96 | 18.5 |
| Cc1nccn1CC1CCc2c(c3ccccc3n2C)/C1=N/OC(=O)c1ccc(Br)s1 (stereo not drawn) [Example 62, (4E)-9-methyl-3-[(2-methyl-1H-imidazol-1-yl)methyl]-1,2,3,9-tetrahydro-4H-carbazol-4-one O-[(5-bromothien-2-yl)carbonyl]oxime] | 42 | 36.5 | 16.4 | – | 86.10 | – | – | – | – |
